Tests used:
[1] = test system: ISC-enriched organoids; assay: Primary screen, 384-well 2.5-D organoid differentiation (ENR+CD, 6 days): carbachol-induced lysozyme secretion (LYZ.S); assay type: cell-based, murine; conditions: for Dose.FC.LYZ.S: FC vs plate median; for Z.LYZ.S: standard z score; for SSMD.LYZ.S: strictly standardized mean difference; for Dose.FC.LYZ.S (log 2 fold change): vs plate median
Excerpt: (§1) High-throughput screening.

[2] = test system: ISC-enriched organoids; assay: Primary screen, 384-well 2.5-D organoid differentiation (ENR+CD, 6 days): basal lysozyme secretion (LYZ.NS); assay type: cell-based, murine; conditions: for Dose.FC.LYZ.NS: FC vs plate median; for Z.LYZ.NS: standard z score of FC; for SSMD.LYZ.NS: strictly standardized mean difference; for Dose.FC.LYZ.NS (log 2 fold change): vs plate median
Excerpt: as §1

[3] = test system: ISC-enriched organoids; assay: Primary screen, 384-well 2.5-D organoid differentiation (ENR+CD, 6 days, Target Selective Inhibitor Library, vs whole-plate median): ATP (CellTiter-Glo 3D, CTG); conditions: for Dose.FC.CTG: FC vs plate median; for Z.CTG: standard z score of FC; for SSMD.CTG: strictly standardized mean difference; for Dose.FC.CTG (log 2 fold change): vs plate median
[4] = primary screen, 1st of the 4 dose lines of the treatment (dose not given)
[5] = primary screen, 2nd of the 4 dose lines of the treatment (dose not given)
[6] = primary screen, 3rd of the 4 dose lines of the treatment (dose not given)
[7] = primary screen, 4th of the 4 dose lines of the treatment (dose not given)

Row | SMILES | Dose.FC.LYZ.S ([1]; Dose 0.08 uM, primary screen) | Dose.FC.LYZ.S ([1]; Dose 0.40 uM, primary screen) | Dose.FC.LYZ.S ([1]; Dose 2.00 uM, primary screen) | Dose.FC.LYZ.S ([1]; Dose 10.00 uM, primary screen) | Dose.FC.LYZ.NS ([2]; Dose 0.08 uM, primary screen) | Z.LYZ.NS ([2]; Dose 0.08 uM) | Dose.FC.LYZ.NS ([2]; Dose 0.40 uM, primary screen) | Z.LYZ.NS ([2]; Dose 0.40 uM) | Dose.FC.LYZ.NS ([2]; Dose 2.00 uM, primary screen) | Z.LYZ.NS ([2]; Dose 2.00 uM) | Dose.FC.LYZ.NS ([2]; Dose 10.00 uM, primary screen) | Z.LYZ.NS ([2]; Dose 10.00 uM) | Dose.FC.CTG ([3]; Dose 0.08 uM, primary screen) | Z.CTG ([3]; Dose 0.08 uM) | Dose.FC.CTG ([3]; Dose 0.40 uM, primary screen) | Z.CTG ([3]; Dose 0.40 uM) | Dose.FC.CTG ([3]; Dose 2.00 uM, primary screen) | Z.CTG ([3]; Dose 2.00 uM) | Dose.FC.CTG ([3]; Dose 10.00 uM, primary screen) | Z.CTG ([3]; Dose 10.00 uM) | further results
1 | CCCC(=O)Nc1cccc(NC(=O)c2ccccc2Br)c1 [ML161] | 0.017 log 2 fold change | −0.027 log 2 fold change | 0.024 log 2 fold change | −0.066 log 2 fold change | 0.018 log 2 fold change | 0.158 | −0.027 log 2 fold change | −0.237 | 0.037 log 2 fold change | 0.323 | −0.057 log 2 fold change | −0.494 | 0.086 log 2 fold change | 0.205 | 0.028 log 2 fold change | 0.067 | 0.066 log 2 fold change | 0.157 | −0.035 log 2 fold change | −0.084 | Z.LYZ.S [1, 4]: 0.113; Z.LYZ.S [1, 5]: −0.173; Z.LYZ.S [1, 6]: 0.158; Z.LYZ.S [1, 7]: −0.429; SSMD.LYZ.S [1, 4]: 0.096; SSMD.LYZ.S [1, 5]: −0.148; SSMD.LYZ.S [1, 6]: 0.152; SSMD.LYZ.S [1, 7]: −0.282; SSMD.LYZ.NS [2, 4]: 0.117; SSMD.LYZ.NS [2, 5]: −0.239; SSMD.LYZ.NS [2, 6]: 0.354; SSMD.LYZ.NS [2, 7]: −0.421; SSMD.CTG [3, 4]: 0.278; SSMD.CTG [3, 5]: 0.087; SSMD.CTG [3, 6]: 0.229; SSMD.CTG [3, 7]: −0.107
2 | O=C1NC(=O)C(c2ccccc2[N+](=O)[O-])=C1Nc1ccc(O)c(Cl)c1 [SB415286] | – | – | – | – | – | – | – | – | – | – | – | – | – | – | – | – | – | – | – | – | Dose.FC.LYZ.S (log 2 fold change) ([1]; Dose 0.08 uM, primary screen): 0.159; Dose.FC.LYZ.S (log 2 fold change) ([1]; Dose 0.40 uM, primary screen): −0.008; Dose.FC.LYZ.S (log 2 fold change) ([1]; Dose 2.00 uM, primary screen): −0.053; Dose.FC.LYZ.S (log 2 fold change) ([1]; Dose 10.00 uM, primary screen): −0.042; Z.LYZ.NS (standard z score) ([2]; Dose 0.08 uM, primary screen): 1.262; Dose.FC.LYZ.NS (log 2 fold change) ([2]; Dose 0.08 uM, primary screen): 0.145; Z.LYZ.NS (standard z score) ([2]; Dose 0.40 uM, primary screen): 0.101; Dose.FC.LYZ.NS (log 2 fold change) ([2]; Dose 0.40 uM, primary screen): 0.012; Z.LYZ.NS (standard z score) ([2]; Dose 2.00 uM, primary screen): 1.024; Dose.FC.LYZ.NS (log 2 fold change) ([2]; Dose 2.00 uM, primary screen): 0.118; Z.LYZ.NS (standard z score) ([2]; Dose 10.00 uM, primary screen): −0.136; Dose.FC.LYZ.NS (log 2 fold change) ([2]; Dose 10.00 uM, primary screen): −0.016; Z.CTG (standard z score) ([3]; Dose 0.08 uM, primary screen): 0.527; Dose.FC.CTG (log 2 fold change) ([3]; Dose 0.08 uM, primary screen): 0.221; Z.CTG (standard z score) ([3]; Dose 0.40 uM, primary screen): −0.011; Dose.FC.CTG (log 2 fold change) ([3]; Dose 0.40 uM, primary screen): −0.004; Z.CTG (standard z score) ([3]; Dose 2.00 uM, primary screen): −0.231; Dose.FC.CTG (log 2 fold change) ([3]; Dose 2.00 uM, primary screen): −0.097; Z.CTG (standard z score) ([3]; Dose 10.00 uM, primary screen): 0.293; Dose.FC.CTG (log 2 fold change) ([3]; Dose 10.00 uM, primary screen): 0.123
3 | CC(C)(Cc1ccc2ccccc2c1)NC[C@@H](O)COc1cccc(Cl)c1C#N [NPS-2143] | 0.147 log 2 fold change | −0.062 log 2 fold change | −0.161 log 2 fold change | −0.116 log 2 fold change | 0.162 log 2 fold change | 1.413 | −0.048 log 2 fold change | −0.416 | −0.077 log 2 fold change | −0.674 | −0.069 log 2 fold change | −0.597 | 0.149 log 2 fold change | 0.356 | −0.195 log 2 fold change | −0.466 | −0.246 log 2 fold change | −0.587 | −0.118 log 2 fold change | −0.282 | –
4 | CS(=O)(=O)N1CCN(Cc2cc3nc(-c4cccc5[nH]ncc45)nc(N4CCOCC4)c3s2)CC1 [GDC-0941] | – | – | – | – | – | 0.070 | – | −0.112 | – | −1.113 | – | −1.362 | – | 0.677 | – | 0.053 | – | −0.472 | – | −2.921 | Dose.FC.LYZ.S ([1]; Dose 0.08 uM, ENR+CD, 6 days): 0.018 log 2 fold change; Dose.FC.LYZ.S ([1]; Dose 0.40 uM, ENR+CD, 6 days): −0.076 log 2 fold change; Dose.FC.LYZ.S ([1]; Dose 2.00 uM, ENR+CD, 6 days): −0.248 log 2 fold change; Dose.FC.LYZ.S ([1]; Dose 10.00 uM, ENR+CD, 6 days): −0.257 log 2 fold change; Dose.FC.LYZ.NS ([2]; Dose 0.08 uM, ENR+CD, 6 days): 0.008 log 2 fold change; Dose.FC.LYZ.NS ([2]; Dose 0.40 uM, ENR+CD, 6 days): −0.013 log 2 fold change; Dose.FC.LYZ.NS ([2]; Dose 2.00 uM, ENR+CD, 6 days): −0.128 log 2 fold change; Dose.FC.LYZ.NS ([2]; Dose 10.00 uM, ENR+CD, 6 days): −0.156 log 2 fold change; Dose.FC.CTG ([3]; Dose 0.08 uM, ENR+CD, 6 days): 0.283 log 2 fold change; Dose.FC.CTG ([3]; Dose 0.40 uM, ENR+CD, 6 days): 0.022 log 2 fold change; Dose.FC.CTG ([3]; Dose 2.00 uM, ENR+CD, 6 days): −0.197 log 2 fold change; Dose.FC.CTG ([3]; Dose 10.00 uM, ENR+CD, 6 days): −1.223 log 2 fold change

From patent US20230398130A1, “METHODS AND COMPOSITIONS FOR DIFFERENTIATING STEM CELLS” (Massachusetts Institute of Technology, priority 2020, published 2023)
